Experimental data taken from PubChem BioAssay (NCI).
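Test compounds were applied to cells in 96-well plates for 48 hours at 5 doses. At the TGI there is no net growth.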

Experiments:
Assay in all cases: NCI tumour cell line growth inhibition, 48 h
HCT-116 colon = test system: HCT-116 colon
LXFL 529 NSCLC = test system: LXFL 529 NSCLC
KM20L2 colon = test system: KM20L2 colon
SNB-19 CNS = test system: SNB-19 CNS
U251 CNS = test system: U251 CNS
HOP-18 NSCLC = test system: HOP-18 NSCLC
RXF-631 renal = test system: RXF-631 renal
SNB-75 CNS = test system: SNB-75 CNS
LOX IMVI melanoma = test system: LOX IMVI melanoma
EKVX NSCLC = test system: EKVX NSCLC
SF-295 CNS = test system: SF-295 CNS
NCI-H23 lung = test system: NCI-H23 lung
UACC-62 melanoma = test system: UACC-62 melanoma
RXF 393 renal = test system: RXF 393 renal
HOP-62 NSCLC = test system: HOP-62 NSCLC
OVCAR-4 ovarian = test system: OVCAR-4 ovarian
MALME-3M melanoma = test system: MALME-3M melanoma
SN12C renal = test system: SN12C renal
NCI-H460 lung = test system: NCI-H460 lung
KM12 colon = test system: KM12 colon
A549 NSCLC = test system: A549 NSCLC
CCRF-CEM leukemia = test system: CCRF-CEM leukemia
HL-60(TB) leukemia = test system: HL-60(TB) leukemia
RPMI-8226 leukemia = test system: RPMI-8226 leukemia
MOLT-4 leukemia = test system: MOLT-4 leukemia
OVCAR-8 ovarian = test system: OVCAR-8 ovarian
HCT-15 colon = test system: HCT-15 colon
COLO 205 colon = test system: COLO 205 colon
DLD-1 colon = test system: DLD-1 colon
SF-268 CNS = test system: SF-268 CNS
M14 melanoma = test system: M14 melanoma
HOP-92 NSCLC = test system: HOP-92 NSCLC
DMS 273 small cell lung = test system: DMS 273 small cell lung
M19-MEL melanoma = test system: M19-MEL melanoma
A498 renal = test system: A498 renal
ACHN renal = test system: ACHN renal
SW-620 colon = test system: SW-620 colon
SK-MEL-2 melanoma = test system: SK-MEL-2 melanoma
HCC-2998 colon = test system: HCC-2998 colon
SF-539 CNS = test system: SF-539 CNS
UO-31 renal = test system: UO-31 renal
DMS 114 small cell lung = test system: DMS 114 small cell lung
TK-10 renal = test system: TK-10 renal
NCI-H522 lung = test system: NCI-H522 lung
SK-MEL-28 melanoma = test system: SK-MEL-28 melanoma
786-0 renal = test system: 786-0 renal
OVCAR-3 ovarian = test system: OVCAR-3 ovarian
OVCAR-5 ovarian = test system: OVCAR-5 ovarian
K-562 leukemia = test system: K-562 leukemia
IGROV1 ovarian = test system: IGROV1 ovarian
UACC-257 melanoma = test system: UACC-257 melanoma
SNB-78 CNS = test system: SNB-78 CNS
HT29 colon = test system: HT29 colon
SK-OV-3 ovarian = test system: SK-OV-3 ovarian

Measured: TGI

C=CCN(N=O)C(=O)ON1C(=O)CCC1=O
> 100 µM: HCT-116 colon | LXFL 529 NSCLC | KM20L2 colon | SNB-19 CNS | U251 CNS | HOP-18 NSCLC | RXF-631 renal | SNB-75 CNS | LOX IMVI melanoma | EKVX NSCLC | SF-295 CNS | NCI-H23 lung | UACC-62 melanoma | RXF 393 renal | HOP-62 NSCLC | OVCAR-4 ovarian | MALME-3M melanoma | SN12C renal | NCI-H460 lung | KM12 colon | A549 NSCLC | CCRF-CEM leukemia | HL-60(TB) leukemia | RPMI-8226 leukemia | MOLT-4 leukemia | OVCAR-8 ovarian | HCT-15 colon | COLO 205 colon | DLD-1 colon | SF-268 CNS | M14 melanoma | HOP-92 NSCLC | DMS 273 small cell lung | M19-MEL melanoma | A498 renal | ACHN renal | SW-620 colon | SK-MEL-2 melanoma | HCC-2998 colon | SF-539 CNS | UO-31 renal | DMS 114 small cell lung | TK-10 renal | NCI-H522 lung | SK-MEL-28 melanoma | 786-0 renal | OVCAR-3 ovarian | OVCAR-5 ovarian | K-562 leukemia | IGROV1 ovarian | UACC-257 melanoma | SNB-78 CNS | HT29 colon | SK-OV-3 ovarian
